# Experimental data taken from PubChem BioAssay AID328 (DTP/NCI, 2004).
# Toxic doses and inconclusive results are not listed.
# Tested on: BDF1 mice, P388 leukemia ip, median survival T/C
# Experiment: NCI In Vivo Anticancer Drug Screen. Data for tumor model P388 Leukemia (intraperitoneal) in B6D2F1 (BDF1) mice
# Settings: endpoint: median survival time, higher = longer survival
# Procedure, shortened: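 Transplantable tumour in mice; compound vs vehicle dosing; survival scored; ratio of treated to control reported.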
# [1] = dose: 100.0 mg/kg/injection, schedule: Q01DX009 (ip), vehicle: Klucel (hydroxypropylcellulose) (HPC)
# [2] = dose: 200.0 mg/kg/injection, schedule: Q01DX009 (ip), vehicle: Klucel (hydroxypropylcellulose) (HPC)
# [3] = dose: 400.0 mg/kg/injection, schedule: Q01DX009 (ip), vehicle: Klucel (hydroxypropylcellulose) (HPC)
# [4] = dose: 1.5 mg/kg/injection, schedule: Q01DX009 (ip), vehicle: saline
# [5] = dose: 50.0 mg/kg/injection, schedule: Q04DX003 (ip), vehicle: saline with Tween-80
# [6] = dose: 200.0 mg/kg/injection, schedule: Q04DX003 (ip), vehicle: saline with Tween-80
# [7] = dose: 100.0 mg/kg/injection, schedule: Q04DX003 (ip), vehicle: saline with Tween-80
# [8] = dose: 400.0 mg/kg/injection, schedule: Q04DX003 (ip), vehicle: saline with Tween-80
# [9] = dose: 50.0 mg/kg/injection, schedule: Q01DX009 (ip), vehicle: saline with Tween-80
# [10] = dose: 100.0 mg/kg/injection, schedule: Q01DX009 (ip), vehicle: saline with Tween-80
# [11] = dose: 200.0 mg/kg/injection, schedule: Q01DX009 (ip), vehicle: saline with Tween-80
# [12] = dose: 50.0 mg/kg/injection, schedule: Q01DX009 (ip), vehicle: water
# [13] = dose: 100.0 mg/kg/injection, schedule: Q01DX009 (ip), vehicle: water
# [14] = dose: 100.0 mg/kg/injection, schedule: Q04DX003 (ip), vehicle: water
# [15] = dose: 200.0 mg/kg/injection, schedule: Q01DX009 (ip), vehicle: water
# [16] = dose: 200.0 mg/kg/injection, schedule: Q04DX003 (ip), vehicle: water
# [17] = dose: 400.0 mg/kg/injection, schedule: Q04DX003 (ip), vehicle: water
# [18] = dose: 25.0 mg/kg/injection, schedule: Q01DX009 (ip), vehicle: saline with Tween-80
smiles,measurement,setting,value
C/C=C1\CCC2C(=C1C)CC1C2CC=C2CC(OC(C)=O)CCC21C (configuration not stated),T/C,[1],115 % of control
same,T/C,[2],120 % of control
same,T/C,[3],105 % of control
Cc1ccc(O)cc1Cl,T/C,"dose: 100.0 mg/kg/injection, schedule: Q01DX009 (ip), vehicle: saline",96 % of control
same,T/C,"dose: 200.0 mg/kg/injection, schedule: Q01DX009 (ip), vehicle: saline",104 % of control
same,T/C,"dose: 400.0 mg/kg/injection, schedule: Q01DX009 (ip), vehicle: saline",104 % of control
C1CCC2[N-]CC3CCCCC3[N-]CC3CCCCC3[N-]CC3CCCCC3[N-]CC2C1.[Ni+2].[O-][Cl+3]([O-])([O-])O (configuration not stated),T/C,"dose: 0.75 mg/kg/injection, schedule: Q01DX009 (ip), vehicle: saline",102 % of control
same,T/C,[4],110 % of control
same,T/C,"dose: 3.0 mg/kg/injection, schedule: Q01DX009 (ip), vehicle: saline",102 % of control
same,T/C,"dose: 6.0 mg/kg/injection, schedule: Q01DX009 (ip), vehicle: saline",105 % of control
O=C(O)C1CC=CCCC1 (configuration not stated),T/C,[1],95 % of control
same,T/C,"dose: 100.0 mg/kg/injection, schedule: Q04DX003 (ip), vehicle: Klucel (hydroxypropylcellulose) (HPC)",91 % of control
same,T/C,[2],104 % of control
same,T/C,"dose: 200.0 mg/kg/injection, schedule: Q04DX003 (ip), vehicle: Klucel (hydroxypropylcellulose) (HPC)",95 % of control
same,T/C,[3],104 % of control
same,T/C,"dose: 400.0 mg/kg/injection, schedule: Q04DX003 (ip), vehicle: Klucel (hydroxypropylcellulose) (HPC)",91 % of control
COc1cc(C=NCCN=Cc2cc(OC)c(OC)c(OC)c2)cc(OC)c1OC,T/C,"dose: 12.5 mg/kg/injection, schedule: Q04DX003 (ip), vehicle: saline with Tween-80",111 % of control
same,T/C,"dose: 25.0 mg/kg/injection, schedule: Q04DX003 (ip), vehicle: saline with Tween-80",107 % of control
same,T/C,[5],92 % of control
same,T/C,[6],95 % of control
COC(=O)C(C#N)Cc1ccccc1Cl (configuration not stated),T/C,[5],101 % of control
same,T/C,[7],98 % of control
same,T/C,[6],98 % of control
same,T/C,[8],97 % of control
O=C1Nc2ccc(Br)cc2C1=Nc1ccc(Cl)cc1,T/C,[9],101 % of control
same,T/C,[10],105 % of control
same,T/C,[11],118 % of control
CC(C)=CCC/C(C)=C/CN1C(=O)C=CC1=O,T/C,"dose: 0.39 mg/kg/injection, schedule: Q01DX009 (ip), vehicle: water",94 % of control
same,T/C,"dose: 0.78 mg/kg/injection, schedule: Q01DX009 (ip), vehicle: water",100 % of control
same,T/C,"dose: 1.56 mg/kg/injection, schedule: Q01DX009 (ip), vehicle: water",112 % of control
same,T/C,"dose: 3.12 mg/kg/injection, schedule: Q01DX009 (ip), vehicle: water",112 % of control
same,T/C,"dose: 6.25 mg/kg/injection, schedule: Q01DX009 (ip), vehicle: water",111 % of control
same,T/C,"dose: 12.5 mg/kg/injection, schedule: Q01DX009 (ip), vehicle: water",89 % of control
CN(C)c1ccc(/C=N/Nc2ncnc3nc[nH]c23)cc1,T/C,[7],103 % of control
same,T/C,[6],96 % of control
same,T/C,[8],103 % of control
O=C(NC(=O)C(F)(F)C(F)(F)F)Nc1cccc(F)c1,T/C,"dose: 50.0 mg/kg/injection, schedule: Q01DX009 (ip), vehicle: Klucel (hydroxypropylcellulose) (HPC)",116 % of control
same,T/C,[1],122 % of control
Clc1nc2ccccc2n2nnnc12,T/C,"dose: 5.0 mg/kg/injection, schedule: Q01DX009 (ip), vehicle: saline with Tween-80",105 % of control
same,T/C,"dose: 10.0 mg/kg/injection, schedule: Q01DX009 (ip), vehicle: saline with Tween-80",105 % of control
same,T/C,"dose: 12.5 mg/kg/injection, schedule: Q01DX009 (ip), vehicle: saline",94 % of control
same,T/C,"dose: 20.0 mg/kg/injection, schedule: Q01DX009 (ip), vehicle: saline with Tween-80",107 % of control
same,T/C,"dose: 25.0 mg/kg/injection, schedule: Q01DX009 (ip), vehicle: saline",97 % of control
CC(C)(N)CCC(C)(C)NCCCN,T/C,[12],92 % of control
same,T/C,[13],103 % of control
same,T/C,[14],100 % of control
same,T/C,[15],106 % of control
same,T/C,[16],103 % of control
same,T/C,[17],92 % of control
CC(C)(/C=C/c1ccccc1)C(=O)O,T/C,[9],95 % of control
same,T/C,[10],102 % of control
same,T/C,[11],100 % of control
CCOC(=O)C(C)(C)CN(CC(C)(C)C(=O)OCC)c1ccccc1,T/C,[7],115 % of control
same,T/C,[6],115 % of control
same,T/C,[8],120 % of control
Cc1ccc2c(/C=C/c3ccc(N(C)C)cc3)ccnc2c1C,T/C,[10],120 % of control
CN(C)C1=C(N2CC2)C(=O)C(N(C)C)=C(N2CC2)C1=O,T/C,"dose: 0.25 mg/kg/injection, schedule: Q01DX009 (ip), vehicle: saline",87 % of control
same,T/C,"dose: 0.5 mg/kg/injection, schedule: Q01DX009 (ip), vehicle: saline",151 % of control
same,T/C,"dose: 1.0 mg/kg/injection, schedule: Q01DX009 (ip), vehicle: saline",174 % of control
Cc1cc(C)[n+](C)c2cc3ccccc3cc12,T/C,"dose: 50.0 mg/kg/injection, schedule: Q01DX005 (ip), vehicle: saline with Tween-80",155 % of control
O=C(Nc1cccc(S(=O)(=O)F)c1)c1ccc(COc2ccc([N+](=O)[O-])cc2Cl)cc1,T/C,[10],91 % of control
same,T/C,[11],91 % of control
CCC[CH2][Sn]([CH2]CCC)[CH2]CCC.CCC[CH2][Sn]([CH2]CCC)[CH2]CCC,T/C,"dose: 3.75 mg/kg/injection, schedule: Q01DX009 (ip), vehicle: saline with Tween-80",110 % of control
same,T/C,"dose: 7.5 mg/kg/injection, schedule: Q01DX009 (ip), vehicle: saline with Tween-80",92 % of control
same,T/C,"dose: 13.0 mg/kg/injection, schedule: Q04DX003 (ip), vehicle: saline with Tween-80",112 % of control
same,T/C,"dose: 15.0 mg/kg/injection, schedule: Q01DX009 (ip), vehicle: saline with Tween-80",114 % of control
same,T/C,"dose: 20.0 mg/kg/injection, schedule: Q04DX003 (ip), vehicle: saline with Tween-80",100 % of control
same,T/C,"dose: 25.0 mg/kg/injection, schedule: Q01DX009 (ip), vehicle: Klucel (hydroxypropylcellulose) (HPC)",95 % of control
same,T/C,"dose: 30.0 mg/kg/injection, schedule: Q04DX003 (ip), vehicle: saline with Tween-80",108 % of control
CCCCCCCOc1cccc(OCCCC[N+]2(CC)CCCCC2)c1,T/C,"dose: 6.25 mg/kg/injection, schedule: Q01DX009 (ip), vehicle: saline",110 % of control
Cc1cc(=O)c2cc(N)ccc2[nH]1,T/C,"dose: 25.0 mg/kg/injection, schedule: Q01DX009 (ip), vehicle: water",110 % of control
same,T/C,[12],94 % of control
same,T/C,"dose: 50.0 mg/kg/injection, schedule: Q04DX003 (ip), vehicle: water",102 % of control
same,T/C,[13],91 % of control
same,T/C,[14],106 % of control
same,T/C,[15],119 % of control
same,T/C,[16],113 % of control
same,T/C,"dose: 400.0 mg/kg/injection, schedule: Q01DX009 (ip), vehicle: water",92 % of control
same,T/C,[17],103 % of control
Cc1ccc(S(=O)(=O)[O][Pb]([CH3])([CH3])[CH3])cc1,T/C,[4],103 % of control
Cc1ccc(NC(=O)Oc2c(C)cc(Cl)cc2C)c([N+](=O)[O-])c1,T/C,[18],90 % of control
same,T/C,[9],101 % of control
O=C1NNCc2c1oc1ccccc21,T/C,[9],96 % of control
same,T/C,[10],114 % of control
same,T/C,[11],90 % of control
CC(C)=NN1C(=O)c2ccccc2C1=O,T/C,[18],101 % of control
same,T/C,[9],101 % of control
same,T/C,[10],100 % of control
CS(=O)c1ccccc1C(=O)O (configuration not stated),T/C,[7],106 % of control
same,T/C,[6],110 % of control
same,T/C,[8],109 % of control
Cc1ccc(S(=O)(=O)NC(=O)OC23COCN2COC3)cc1,T/C,[9],116 % of control
